Measured values as given in PubChem BioAssay AID1963439 (Molecular Pharmacology Branch, DTP, NCI, 2024).
pIC50: −log10 of the molar value. Several values for one entry are separate records, joined by “and”; a condition that tells them apart may be missing. Identical values can stand only once.

Tested on: NCI-H196 complex spheroids with HUVEC/MSC, growth % T/C
Assay: Anticancer human tumor NCI-H196 cell line growth inhibition [Asc];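 further: spheroids exposed to compound for 7 days before measurement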;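 on viability, T/C: 100% = DMSO vehicle control wells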
Conditions: for viability, T/C: stronger effect = lower value
How it was run: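 Complex spheroids combining tumor cells with HUVEC endothelial cells and human MSCs, at 37 degrees C, 5% CO2; agents tested alone or combined, half-log dilutions from at or near clinical Cmax, or 10 microM if Cmax unknown.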

[1] = curve of first compound, second compound 0.01 µM
[2] = curve of first compound, second compound 0.0316 µM
[3] = curve of first compound, second compound 0.1 µM
[4] = curve of first compound, second compound 0.316 µM
[5] = curve of first compound, second compound 1 µM
[6] = second compound 0.01 µM, first compound 0.0316 µM
[7] = second compound 0.01 µM, first compound 0.1 µM
[8] = second compound 0.0316 µM, first compound 0.0316 µM
[9] = second compound 0.0316 µM, first compound 0.1 µM
[10] = second compound 0.1 µM, first compound 0.0316 µM
[11] = second compound 0.1 µM, first compound 0.1 µM
[12] = second compound 0.316 µM, first compound 0.0316 µM
[13] = second compound 0.316 µM, first compound 0.1 µM
[14] = second compound 1 µM, first compound 0.0316 µM
[15] = second compound 1 µM, first compound 0.1 µM

Q: Which results are given for `C=CC(=O)N1CCN(c2nc(=O)n(-c3c(C)ccnc3C(C)C)c3nc(-c4c(O)cccc4F)c(F)cc23)C(C)C1` (configuration not stated) + CNC(C)C(=O)NC1CN(S(=O)(=O)c2cccc(S(=O)(=O)N3CCC4CCC(C(=O)NC(c5ccccc5)c5ccccc5)N4C(=O)C(NC(=O)C(C)NC)C3)c2)CCC2CCC(C(=O)NC(c3ccccc3)c3ccccc3)N2C1=O?
A: pIC50 [1]: > 7.50; pIC50 [2]: > 7.50; pIC50 [3]: > 7.50; pIC50 [4]: > 7.50; pIC50 [5]: > 7.50; viability, T/C [6]: 8.2%; viability, T/C [7]: 7.68%; viability, T/C (second compound 0.01 µM, first compound 0.316 µM): 5.38%; viability, T/C (second compound 0.01 µM, first compound 1 µM): 6.44%; viability, T/C (second compound 0.01 µM, first compound 3.16 µM): 8.71%; viability, T/C (second compound 0.01 µM, first compound 10 µM): 9.87%; viability, T/C [8]: 3.84%; viability, T/C [9]: 5.12%; viability, T/C (second compound 0.0316 µM, first compound 0.316 µM): 5.38%; viability, T/C (second compound 0.0316 µM, first compound 1 µM): 8.69%; viability, T/C (second compound 0.0316 µM, first compound 3.16 µM): 6.93%; viability, T/C (second compound 0.0316 µM, first compound 10 µM): 7.56%; viability, T/C [10]: 3.27%; viability, T/C [11]: 3.83%; viability, T/C (second compound 0.1 µM, first compound 0.316 µM): 3.69%; viability, T/C (second compound 0.1 µM, first compound 1 µM): 4.2%; viability, T/C (second compound 0.1 µM, first compound 3.16 µM): 7.47%; viability, T/C (second compound 0.1 µM, first compound 10 µM): 9.85%; viability, T/C [12]: 3.58%; viability, T/C [13]: 3.64%; viability, T/C (second compound 0.316 µM, first compound 0.316 µM): 6.15%; viability, T/C (second compound 0.316 µM, first compound 1 µM): 3.67%; viability, T/C (second compound 0.316 µM, first compound 3.16 µM): 4.47%; viability, T/C (second compound 0.316 µM, first compound 10 µM): 6.52%; viability, T/C [14]: 3.22%; viability, T/C [15]: 3.89%; viability, T/C (second compound 1 µM, first compound 0.316 µM): 3.25%; viability, T/C (second compound 1 µM, first compound 1 µM): 3.51%; viability, T/C (second compound 1 µM, first compound 3.16 µM): 5.33%; viability, T/C (second compound 1 µM, first compound 10 µM): 9.94%

Q: What does the source list for `Cc1nc(N2CCC3(CC2)COC(C)C3N)c(CO)nc1Sc1ccnc(N)c1Cl` (configuration not stated) + Cc1c(S(C)(=O)=O)c(-c2cc(F)cc(N3CCN(c4ccc(NS(=O)(=O)c5ccc(NC(CCN6CCC(C(=O)OCCCP(=O)(O)O)CC6)CSc6ccccc6)c(S(=O)(=O)C(F)(F)F)c5)cc4)CC3)c2)c(-c2ccc(Cl)cc2)n1C(C)C?
A: pIC50 [3]: 5.87; pIC50 [4]: 5.94; pIC50 [5]: 5.94; pIC50 (curve of first compound, second compound 3.16 µM): 6.03; pIC50 (curve of first compound, second compound 10 µM): 5.93; viability, T/C (second compound 0.1 µM, first compound 0.00949 µM): 111%; viability, T/C (second compound 0.1 µM, first compound 0.03 µM): 118%; viability, T/C (second compound 0.1 µM, first compound 0.0949 µM): 96.2%; viability, T/C (second compound 0.1 µM, first compound 0.3 µM): 87.8%; viability, T/C (second compound 0.1 µM, first compound 0.949 µM): 60.1%; viability, T/C (second compound 0.1 µM, first compound 3 µM): 26.3%; viability, T/C (second compound 0.316 µM, first compound 0.00949 µM): 93.4%; viability, T/C (second compound 0.316 µM, first compound 0.03 µM): 102%; viability, T/C (second compound 0.316 µM, first compound 0.0949 µM): 109%; viability, T/C (second compound 0.316 µM, first compound 0.3 µM): 93.8%; viability, T/C (second compound 0.316 µM, first compound 0.949 µM): 55.2%; viability, T/C (second compound 0.316 µM, first compound 3 µM): 24%; viability, T/C (second compound 1 µM, first compound 0.00949 µM): 93.1%; viability, T/C (second compound 1 µM, first compound 0.03 µM): 97.9%; viability, T/C (second compound 1 µM, first compound 0.0949 µM): 98.1%; viability, T/C (second compound 1 µM, first compound 0.3 µM): 87%; viability, T/C (second compound 1 µM, first compound 0.949 µM): 55.4%; viability, T/C (second compound 1 µM, first compound 3 µM): 24%; viability, T/C (second compound 3.16 µM, first compound 0.00949 µM): 93.9%; viability, T/C (second compound 3.16 µM, first compound 0.03 µM): 97.8%; viability, T/C (second compound 3.16 µM, first compound 0.0949 µM): 103%; viability, T/C (second compound 3.16 µM, first compound 0.3 µM): 84.9%; viability, T/C (second compound 3.16 µM, first compound 0.949 µM): 49.9%; viability, T/C (second compound 3.16 µM, first compound 3 µM): 22.9%; viability, T/C (second compound 10 µM, first compound 0.00949 µM): 84.7%; viability, T/C (second compound 10 µM, first compound 0.03 µM): 93.7%; viability, T/C (second compound 10 µM, first compound 0.0949 µM): 88.5%; viability, T/C (second compound 10 µM, first compound 0.3 µM): 78%; viability, T/C (second compound 10 µM, first compound 0.949 µM): 55.9%; viability, T/C (second compound 10 µM, first compound 3 µM): 24.7%

Q: Which results are given for `O=C(c1cc(Cc2n[nH]c(=O)c3ccccc23)ccc1F)N1CCN(C(=O)C2CC2)CC1`?
A: viability, T/C (compound 0.0316 µM): 94% and 96.9%; viability, T/C (compound 0.1 µM): 96.5% and 113%; viability, T/C (compound 0.316 µM): 101% and 94.4%; viability, T/C (compound 1 µM): 99.6% and 101%; viability, T/C (compound 3.16 µM): 96.3% and 102%; viability, T/C (compound 10 µM): 97.1% and 97.2%; pIC50 (curve of compound): < 5.00

Q: Which results are given for `Cn1ncnc1[C@H]1c2n[nH]c(=O)c3cc(F)cc(c23)N[C@@H]1c1ccc(F)cc1` + CNC(C)C(=O)NC1CN(S(=O)(=O)c2cccc(S(=O)(=O)N3CCC4CCC(C(=O)NC(c5ccccc5)c5ccccc5)N4C(=O)C(NC(=O)C(C)NC)C3)c2)CCC2CCC(C(=O)NC(c3ccccc3)c3ccccc3)N2C1=O?
A: pIC50 [1]: > 9.50; pIC50 [2]: > 9.50; pIC50 [3]: > 9.50; pIC50 [4]: > 9.50; pIC50 [5]: > 9.50; viability, T/C (second compound 0.01 µM, first compound 0.000316 µM): 5.99%; viability, T/C (second compound 0.01 µM, first compound 0.001 µM): 6.41%; viability, T/C (second compound 0.01 µM, first compound 0.00316 µM): 5.39%; viability, T/C (second compound 0.01 µM, first compound 0.01 µM): 5.55%; viability, T/C [6]: 9.54%; viability, T/C [7]: 6.44%; viability, T/C (second compound 0.0316 µM, first compound 0.000316 µM): 7.02%; viability, T/C (second compound 0.0316 µM, first compound 0.001 µM): 6.75%; viability, T/C (second compound 0.0316 µM, first compound 0.00316 µM): 5.6%; viability, T/C (second compound 0.0316 µM, first compound 0.01 µM): 4.53%; viability, T/C [8]: 3.1%; viability, T/C [9]: 4.55%; viability, T/C (second compound 0.1 µM, first compound 0.000316 µM): 4.37%; viability, T/C (second compound 0.1 µM, first compound 0.001 µM): 3.32%; viability, T/C (second compound 0.1 µM, first compound 0.00316 µM): 4.82%; viability, T/C (second compound 0.1 µM, first compound 0.01 µM): 3.9%; viability, T/C [10]: 2.51%; viability, T/C [11]: 3.65%; viability, T/C (second compound 0.316 µM, first compound 0.000316 µM): 3.1%; viability, T/C (second compound 0.316 µM, first compound 0.001 µM): 3.37%; viability, T/C (second compound 0.316 µM, first compound 0.00316 µM): 3.42%; viability, T/C (second compound 0.316 µM, first compound 0.01 µM): 3.57%; viability, T/C [12]: 2.58%; viability, T/C [13]: 4.61%; viability, T/C (second compound 1 µM, first compound 0.000316 µM): 2.27%; viability, T/C (second compound 1 µM, first compound 0.001 µM): 4.58%; viability, T/C (second compound 1 µM, first compound 0.00316 µM): 3.37%; viability, T/C (second compound 1 µM, first compound 0.01 µM): 3%; viability, T/C [14]: 3.76%; viability, T/C [15]: 5.53%
